{"source": "patent US20130197077A1", "about": "“Bicyclic Furanones with Low Toxicity for Microbial Control” (priority 2012, published 2013)", "key": {"[1]": {"system": "SK-N-SH human neuroblastoma", "assay": "Cytotoxicity to mammalian cells, survival (%) by OD450", "format": "cell-based", "details": "100 μM; 0 h, 24 h and 48 h recovery after removal of drugs", "method": "(§1) In this test, the mammalian cells used were 3T3 mouse fibroblasts and SK-N-SH human neuroblastomas, and 0 h, 24 h, and 48 h, refer to recovery time of cells after removal of drugs. At the beginning of the experiment, the survival of the cells is assumed to be 100 percent. The survival percentage is calculated using the following formula: […]\n(§2) The sample OD was obtained from the wells containing cells and drugs, and the control OD was obtained from wells containing cells+1% DMSO."}, "3T3 mouse fibroblasts": {"system": "3T3 mouse fibroblasts", "assay": "Cytotoxicity to mammalian cells, survival (%) by OD450", "format": "cell-based", "details": "100 μM; 0 h, 24 h and 48 h recovery after removal of drugs", "method": "as §1, §2"}, "E. coli RP437": {"system": "E. coli RP437", "from_the_text": "FIG. 10 is a graph comparing the cytotoxicity of the exemplary bicyclic brominated furanones according to the present invention verses an exemplary conventional brominated furanone relative to E. Coli RP437;"}}}
{"smiles": "CC1=C(Br)/C(=C/Br)OC1=O", "note": "[BF8]", "values": [{"measurement": "cytotoxicity to SK-N-SH human neuroblastomas", "setting": "[1]", "value": "cytotoxic"}, {"measurement": "cytotoxicity to 3T3 mouse fibroblasts", "setting": "3T3 mouse fibroblasts", "value": "cytotoxic"}, {"measurement": "toxicity to the growth of E. coli RP437", "setting": "E. coli RP437", "value": "more toxic"}]}
